In patent publication US20260272895A1, “METHODS AND KITS FOR DELIVERY OF COMPOUNDS INTO CELLS” (Yale University, priority 2023, published 2026):

Legend:
[1] = tested on: cancer cells in freshly excised breast surgical tissue; experiment: Injection into freshly excised cancerous breast tissue
Excerpt: Injection of compound 1 into freshly excised cancerous breast tissue leads to rapid entry into cancer cells (red). Blue represents nuclear labeling with Hoechst dye.

[2] = tested on: brain cell types; experiment: In vivo two-photon imaging of mouse cortex after topical cortical administration of fluorophores; conditions: topical cortical administration 50 μM, Tie2-GFP endothelial reporter mice

| Structure (SMILES) | entry into breast cancer cells [1] | colocalization with GFP labeling [2] |
| --- | --- | --- |
| O=S(=O)([O-])c1cc(S(=O)(=O)O)ccc1C1=c2cc3c4c(c2Oc2cc(Br)ccc21)CCC[N+]=4CCC3 [Compound 1, 2-(12-bromo-1,2,3,5,6,7-hexahydrochromeno[2,3-f]pyrido[3,2,1-ij]quinolin-4-ium-9-yl)-5-sulfobenzenesulfonate] | readily enters cancer cells |  |
| COc1cc2c(c(OC)c1OC)-c1ccc(OC)c(=O)cc1C(NS(=O)(=O)c1ccc(-c3c4ccc(N(C)C)cc4[o+]c4cc(N(C)C)ccc34)c(S(=O)(=O)[O-])c1)CC2 (centres unmarked) [Compound 47, 2-(3,6-bis(dimethylamino)xanthylium-9-yl)-5-(N-(1,2,3,10-tetramethoxy-9-oxo-5,6,7,9-tetrahydrobenzo[a]heptalen-7-yl)sulfamoyl)benzenesulfonate] |  | precise colocalization between Colchicine-eEDiTS and GFP labeling |
